# Measured values taken from ChEMBL document CHEMBL1201862, “PubChem BioAssay data set” (2004).
# Calls of active or inactive are those of the source.
# Experiments:
# Caspase-6 = target: T1, Caspase-6 (Homo sapiens, UniProt P55212); assay: inhibition of CASP6 peptide cleavage – biochemical, VEID-R110 fluorescence, cherry-pick, dose response (AID 720632)
# T1 sequence (P55212 whole entry): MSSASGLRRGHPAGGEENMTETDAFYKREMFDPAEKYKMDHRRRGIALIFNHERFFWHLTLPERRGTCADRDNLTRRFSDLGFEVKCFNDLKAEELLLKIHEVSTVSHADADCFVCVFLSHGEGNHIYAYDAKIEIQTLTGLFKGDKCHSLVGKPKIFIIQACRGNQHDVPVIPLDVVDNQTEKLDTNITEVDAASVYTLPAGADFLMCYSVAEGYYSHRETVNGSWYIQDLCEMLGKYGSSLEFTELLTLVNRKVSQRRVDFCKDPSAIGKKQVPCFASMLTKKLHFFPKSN
# [1] = HGIII-sPLA2 enzyme inhibition potency – biochemical, QFRET, IC50, dose response (AID 743457);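 also: green fluorescence rise as the enzyme cleaves BODIPY PC-A2 in liposomes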
# [2] = target: T2, Intestinal-type alkaline phosphatase (Homo sapiens, UniProt P09923); assay: human intestinal alkaline phosphatase activators, dose response, biochemical, luminescence, uHTS hits (AID 463120); format: functional
# [3] = decrease of insulin promoter-GFP reporter – imaging, high-content screening, mouse beta cells (AID 1628); format: functional; conditions: MIN6
# [4] = luciferase reporter signal suppression in cells – H4 neuroglioma cells, luminescence, dose response (AID 1990); format: functional, cell-based
# [5] = target: Intestinal-type alkaline phosphatase (Mus musculus, UniProt P24822); assay: PubChem AID 488874; format: functional
# [6] = MIN6 cell viability loss – mouse insulinoma, cytotoxicity control, dose response (AID 2122); format: functional;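 also: confirmatory high-throughput counterscreen run to flag cytotoxic compounds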
# [7] = target: T2, Intestinal-type alkaline phosphatase; assay: activation of human intestinal alkaline phosphatase – biochemical, luminescent, uHTS hits, set 2, dose response (AID 488817); format: functional;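 also: potency of activators that raise enzyme activity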
# HT-1080 = assay: HT1080 cell viability loss – fluorescence readout (AID 620); format: functional, cell-based; conditions: Homo sapiens
# Nonstructural protein 1 = Nonstructural protein 1 (Influenza A virus, UniProt Q194T2); format: functional, Influenza A virus (A/California/07/2009(H1N1))
# [8] = Vero E6 cell cytotoxicity, dose response, cytotoxicity control for non-replicating M. tuberculosis project, secondary assay (AID 492998); format: functional, VeroE6; conditions: Vero C1008
# [9] = THP-1 cell cytotoxicity, dose response, cytotoxicity control for non-replicating M. tuberculosis project (AID 489025); format: functional
# [10] = target: Luciferin 4-monooxygenase (Photinus pyralis, UniProt P08659); assay: Counter Screen for Luciferase-based Assay Positives. [Related pubchem assays: 620, 618, 411 ]
# [11] = Intein inhibitors as potential Tuberculosis drugs, a cytotoxicity screen. [Related pubchem assays (depositor defined):AID2221, AID2223, AID434968, AID435010, AID449749, AID449750, AID489010]; format: functional
# cells [12] = format: functional
# [13] = microbe, parasite or virus in culture; format: functional; conditions: Mycobacterium tuberculosis
# [14] = viability loss in CEM21 cells – cell-based, CellTiter-Glo luminescence, cherry-picked, cytotoxicity control for viral fusion inhibitor project, dose response (AID 652042); format: functional;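 also: potency for signal decrease meaning cytotoxicity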
# [15] = off-target signal loss in HeLa-CEM21 co-culture – HeLa F-luc CTL cells, cherry-picked, counter-screen for HIV-1 Env fusion inhibitor project, dose response (AID 652040); format: functional, cell-based;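 also: potency for signal decrease marking cytotoxic or nonspecific inhibition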
# [16] = HepG2 cell cytotoxicity, dose response, cytotoxicity control for non-replicating M. tuberculosis project (AID 489018); format: functional; conditions: Mycobacterium tuberculosis
# [17] = A2780 cell killing – plate reader, dry powder samples, cytotoxicity control, dose response (AID 743046); format: functional, cell-based
# [18] = reduction of Shn3 3'UTR-driven luciferase in osteoblasts – cell-based, Clone20 osteoblasts, firefly luciferase, cherry-picked, dose response (AID 624132); format: functional;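 also: firefly luciferase luminescence from reporter carrying the Shn3 3'UTR in osteoblasts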
# HEK293 = assay: SAR Analysis of small molecule inhibitors of T-cell specific antigen receptor-induced NF-kB activation in a HEK-293T cell line using a luminescence assay - Set 2. [Related pubchem assays (depositor defined):AID435003, AID435012, AID489026]; format: functional, cell-based; conditions: Homo sapiens
# cells [19] = format: functional, cell-based
# [20] = target: T3, Serine/threonine-protein phosphatase (Candida dubliniensis (strain CD36 / CBS 7987 / NCPF 3949 / NRRLY-17841) (Yeast), UniProt B9W6M3); assay: blockers of CaCl2-induced CDRE-lacZ signaling – S. cerevisiae, luminescence, secondary, dose response (AID 2388); format: functional, cell-based;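 also: yeast reporter cells carrying a calcineurin-responsive lacZ construct stimulated with calcium chloride; luminescent beta-galactosidase reporter signal in whole cells rather than isolated phosphatase activity; potency for inhibition where a drop in reporter signal means calcineurin blockade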
# T3 sequence (B9W6M3 whole entry): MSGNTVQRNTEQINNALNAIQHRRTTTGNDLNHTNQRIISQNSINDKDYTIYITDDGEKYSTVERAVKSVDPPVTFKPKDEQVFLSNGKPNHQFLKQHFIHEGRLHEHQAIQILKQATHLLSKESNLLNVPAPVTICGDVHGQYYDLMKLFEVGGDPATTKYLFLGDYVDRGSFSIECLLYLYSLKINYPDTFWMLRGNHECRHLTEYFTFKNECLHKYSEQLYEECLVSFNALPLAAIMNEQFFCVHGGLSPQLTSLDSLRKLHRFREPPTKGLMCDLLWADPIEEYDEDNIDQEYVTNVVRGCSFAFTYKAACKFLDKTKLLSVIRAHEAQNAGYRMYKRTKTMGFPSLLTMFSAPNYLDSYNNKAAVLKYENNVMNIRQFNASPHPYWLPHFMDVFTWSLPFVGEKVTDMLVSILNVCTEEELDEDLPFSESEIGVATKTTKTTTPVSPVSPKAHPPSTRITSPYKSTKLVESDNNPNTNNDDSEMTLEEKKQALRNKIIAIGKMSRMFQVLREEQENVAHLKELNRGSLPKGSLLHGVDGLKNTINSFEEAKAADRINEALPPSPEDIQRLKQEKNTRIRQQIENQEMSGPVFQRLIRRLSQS
# [21] = PAX8-dependent cell viability loss – plate reader, dry powder, dose response (AID 743049); format: functional, cell-based
# [22] = target: ATP-dependent molecular chaperone HSP82 (Candida albicans (strain WO-1) (Yeast), UniProt C4YTQ8); assay: steroid-induced GRE reporter decrease in yeast – S. cerevisiae, luminescence, Hsp90 inhibitor project, dose response (AID 2400); format: functional, cell-based;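 also: beta-galactosidase luminescence from glucocorticoid response element reporter as proxy for Hsp90 function; inhibitor potency where signal loss means Hsp90 inhibition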
# [23] = COV434 cell viability loss – plate reader, dry powder, SA7, cytotoxicity control for PAX8 inhibitor project, dose response (AID 743145); format: functional, cell-based
# [24] = toxicity toward immortalized ovarian surface epithelium – cell-based, plate reader, dry powder samples, cytotoxicity control for PAX8 inhibitor project, dose response (AID 743045); format: functional
# [25] = OV-90 cell viability loss – plate reader, dry powder, SA8, PAX8 inhibitor project, dose response (AID 743149); format: functional, cell-based
# [26] = COV362 cell viability loss – plate reader, dry powder, SA12, cytotoxicity control for PAX8 inhibitor project, dose response (AID 743144); format: functional, cell-based
# [27] = OVCAR-3 cell viability loss – plate reader, dry powder samples, PAX8 inhibitor project, dose response (AID 743044); format: functional, cell-based
# [28] = NIH3T3 cell viability loss – ATP luminescence, mouse fibroblasts, counter-screen, dose response (AID 2010); format: functional, cell-based;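 also: cells exposed to compound for about 90 hours before reading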
# [29] = general cell-killing toxicity readout – plate reader, dry powder samples, cytotoxicity control for PAX8 inhibitor project, dose response (AID 743021); format: functional, cell-based
# [30] = non-specific 3'UTR reporter inhibition in Clone20-Shn3RL – cell-based, Renilla luciferase, cherry-picked, counter-screen for Shn3 inhibitor project, dose response (AID 624133); format: functional
# T2 sequence (P09923 whole entry): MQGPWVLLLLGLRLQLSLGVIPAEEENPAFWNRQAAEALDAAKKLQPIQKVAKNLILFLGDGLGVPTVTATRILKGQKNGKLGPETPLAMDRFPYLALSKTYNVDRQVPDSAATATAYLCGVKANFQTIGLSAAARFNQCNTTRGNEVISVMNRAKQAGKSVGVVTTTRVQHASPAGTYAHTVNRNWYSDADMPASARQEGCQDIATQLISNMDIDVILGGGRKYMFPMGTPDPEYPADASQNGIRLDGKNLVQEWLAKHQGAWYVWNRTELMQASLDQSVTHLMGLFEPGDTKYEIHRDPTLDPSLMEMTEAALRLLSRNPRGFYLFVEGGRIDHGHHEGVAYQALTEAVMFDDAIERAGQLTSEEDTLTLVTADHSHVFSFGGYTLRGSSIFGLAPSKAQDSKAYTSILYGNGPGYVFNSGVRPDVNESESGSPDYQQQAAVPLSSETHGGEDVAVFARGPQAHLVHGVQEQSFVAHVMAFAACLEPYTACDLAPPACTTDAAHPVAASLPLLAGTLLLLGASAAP
# ATP-dependent molecular chaperone HSP82, sequence (C4YTQ8 whole entry): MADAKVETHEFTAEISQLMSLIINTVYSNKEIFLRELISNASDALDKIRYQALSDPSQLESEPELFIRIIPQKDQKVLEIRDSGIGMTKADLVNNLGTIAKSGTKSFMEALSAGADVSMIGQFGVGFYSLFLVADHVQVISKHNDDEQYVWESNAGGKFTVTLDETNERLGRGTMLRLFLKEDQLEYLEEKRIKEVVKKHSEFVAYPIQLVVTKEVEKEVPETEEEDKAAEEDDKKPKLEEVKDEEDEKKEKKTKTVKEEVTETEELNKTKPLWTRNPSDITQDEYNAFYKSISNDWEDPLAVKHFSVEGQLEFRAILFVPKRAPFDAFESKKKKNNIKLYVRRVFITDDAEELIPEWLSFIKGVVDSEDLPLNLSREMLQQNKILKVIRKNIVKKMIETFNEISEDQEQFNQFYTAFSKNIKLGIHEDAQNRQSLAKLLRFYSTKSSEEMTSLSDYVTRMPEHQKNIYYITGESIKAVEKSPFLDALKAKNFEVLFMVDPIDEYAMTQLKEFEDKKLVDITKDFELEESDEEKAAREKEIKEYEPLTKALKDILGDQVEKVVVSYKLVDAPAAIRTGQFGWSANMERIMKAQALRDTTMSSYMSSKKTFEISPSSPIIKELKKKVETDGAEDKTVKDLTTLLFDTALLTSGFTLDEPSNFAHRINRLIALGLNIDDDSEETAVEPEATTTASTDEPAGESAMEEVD
# Intestinal-type alkaline phosphatase (Mus musculus, UniProt P24822), sequence (P24822 whole entry): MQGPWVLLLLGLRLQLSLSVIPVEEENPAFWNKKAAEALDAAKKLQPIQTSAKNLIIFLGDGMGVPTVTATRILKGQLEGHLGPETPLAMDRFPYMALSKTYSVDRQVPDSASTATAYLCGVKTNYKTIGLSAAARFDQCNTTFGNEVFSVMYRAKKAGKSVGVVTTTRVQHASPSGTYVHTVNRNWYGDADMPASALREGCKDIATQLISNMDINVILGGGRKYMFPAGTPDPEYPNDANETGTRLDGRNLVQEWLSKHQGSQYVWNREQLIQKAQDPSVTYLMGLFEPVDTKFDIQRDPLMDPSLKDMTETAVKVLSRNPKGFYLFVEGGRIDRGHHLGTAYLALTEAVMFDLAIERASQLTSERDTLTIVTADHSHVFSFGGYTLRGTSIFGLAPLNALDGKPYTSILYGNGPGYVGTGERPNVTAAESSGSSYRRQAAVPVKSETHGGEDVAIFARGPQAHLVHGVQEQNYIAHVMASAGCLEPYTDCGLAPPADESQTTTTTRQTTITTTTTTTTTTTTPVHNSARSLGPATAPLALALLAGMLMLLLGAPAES
# Luciferin 4-monooxygenase, sequence (P08659 whole entry): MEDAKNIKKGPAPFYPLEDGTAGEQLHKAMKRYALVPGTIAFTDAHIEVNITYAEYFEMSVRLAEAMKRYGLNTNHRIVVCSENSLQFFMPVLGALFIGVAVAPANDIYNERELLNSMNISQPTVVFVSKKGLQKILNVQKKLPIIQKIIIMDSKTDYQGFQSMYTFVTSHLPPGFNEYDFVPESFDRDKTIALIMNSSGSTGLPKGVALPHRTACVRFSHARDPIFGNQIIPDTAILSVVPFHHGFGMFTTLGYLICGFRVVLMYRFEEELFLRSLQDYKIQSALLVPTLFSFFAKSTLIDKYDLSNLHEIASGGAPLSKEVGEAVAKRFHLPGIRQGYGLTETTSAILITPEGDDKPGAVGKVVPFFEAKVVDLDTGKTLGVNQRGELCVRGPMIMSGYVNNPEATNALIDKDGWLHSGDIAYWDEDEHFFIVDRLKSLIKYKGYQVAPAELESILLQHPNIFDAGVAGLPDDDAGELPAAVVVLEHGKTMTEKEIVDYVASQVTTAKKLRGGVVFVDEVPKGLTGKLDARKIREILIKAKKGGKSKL
# Nonstructural protein 1, sequence (Q194T2 whole entry): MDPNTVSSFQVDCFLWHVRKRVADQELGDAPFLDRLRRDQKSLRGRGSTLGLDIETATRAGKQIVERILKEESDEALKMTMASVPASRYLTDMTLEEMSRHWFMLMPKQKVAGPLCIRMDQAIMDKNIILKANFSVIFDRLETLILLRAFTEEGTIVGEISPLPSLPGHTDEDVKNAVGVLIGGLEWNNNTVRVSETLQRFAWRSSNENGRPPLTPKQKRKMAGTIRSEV
compound,measurement,setting,value
O=C(N/N=C1\C/C(=N\NC(=O)c2ccncc2)c2ccccc21)c1ccncc1,AC50,Caspase-6,0.749 µM (active)
O=C(/C=C/c1cccs1)NC(=S)NNC(=O)c1ccccc1O,IC50,[1],> 122 µM (inactive)
same,EC50,[2],8.8 µM (active)
same,IC50,[3],2.78 µM (active)
same,EC50,[4],> 120 µM (not active)
same,IC50,[5],70.4 µM (active)
same,IC50,[6],2.57 µM (active)
same,EC50,[7],11 µM (active)
CC(=O)N(Cc1ccc(F)cc1)C1=C(NCCc2ccccc2)C(=O)c2ccccc2C1=O,EC50,HT-1080,15.6 µM (active)
same,IC50,Nonstructural protein 1,32.2 µM (active)
same,CC50,[8],7 µM (active)
same,CC50,[9],0.67 µM (active)
same,EC50,[10],7.95 µM (active)
same,CC50,[11],5.56 µM (active)
same,IC50,cells [12],3.23 µM (active)
same,CC50,[13],10.9 µM (active)
same,AC50,[14],2.16 µM (active)
same,AC50,[15],5.21 µM (active)
same,CC50,[16],5.95 µM (active)
CCCCC(=O)NC(c1ccccc1)c1ccc2cccnc2c1O (centres undefined),AC50,[17],2.13 µM (active)
same,AC50,[18],2.35 µM (active)
same,IC50,HEK293,8.62 µM (active)
same,EC50,cells [19],7.75 µM (active)
same,EC50,[20],> 180 µM (inactive)
same,AC50,[21],9.11 µM (active)
same,EC50,[22],24.2 µM (active)
same,AC50,[23],4.16 µM (active)
same,AC50,[24],10.9 µM (active)
same,AC50,[25],3.88 µM (active)
same,AC50,[26],3.28 µM (active)
same,AC50,[27],2.45 µM (active)
same,EC50,[28],1.03 µM (active)
same,AC50,[29],63.3 µM (active)
same,AC50,[30],1.31 µM (active)
